This assay has as its target T1, Monocarboxylate transporter 4 (Homo sapiens) (UniProt O15427).
T1 sequence (whole entry): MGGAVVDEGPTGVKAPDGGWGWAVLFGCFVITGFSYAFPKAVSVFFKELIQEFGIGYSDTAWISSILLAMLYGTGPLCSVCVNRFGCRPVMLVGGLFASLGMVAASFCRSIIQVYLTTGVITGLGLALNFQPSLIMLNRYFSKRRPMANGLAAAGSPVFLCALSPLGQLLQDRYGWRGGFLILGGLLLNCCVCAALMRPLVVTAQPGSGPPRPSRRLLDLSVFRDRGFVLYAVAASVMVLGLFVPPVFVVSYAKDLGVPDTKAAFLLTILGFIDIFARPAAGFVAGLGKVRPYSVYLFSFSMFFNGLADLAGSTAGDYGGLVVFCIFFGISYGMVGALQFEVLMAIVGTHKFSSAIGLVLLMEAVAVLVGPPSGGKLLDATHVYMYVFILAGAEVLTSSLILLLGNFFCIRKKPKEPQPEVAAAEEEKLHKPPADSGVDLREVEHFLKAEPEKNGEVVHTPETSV
The assay is described as follows: Substrate uptake by the monocarboxylate transporter 4 (MCT4, SLC16A3) as assessed by a sensor pH-sensitive genetically encoded fluorescent sensor (pHAxensor) in HEK-293 JumpIN-SLC16A3 cells (PubChem AID: 1794833). It counts as functional, cell-based. As to conditions: HEK293.

SMILES strings stand for the structures.

Take `CC(O)C(=O)O` (stereo unspecified): the proof of principle entry is “Substrate. In Comparison To Wild-Type And Not Induced Cells, Cells With Induced Slc16A3 Expression Showed A Specific Transporter Activity, Upon Substrate Addition, Detected As Decrease Of Intracellular Ph, Recorded As Quenching Of The Sensor Fluorescence Signal”.
